Holding throughout (test): relative viability (nuclei count vs DMSO), 5 days (fraction); higher = more cells survive
Compound in the assay “Dabrafenib + Olaparib”: CC(C)(C)c1nc(-c2cccc(NS(=O)(=O)c3c(F)cccc3F)c2F)c(-c2ccnc(N)n2)s1 [Dabrafenib] + O=C(c1cc(Cc2n[nH]c(=O)c3ccccc23)ccc1F)N1CCN(C(=O)C2CC2)CC1 [Olaparib] (partner 8 µM)
In outline:
(§1)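 After 5 days of treatment, lung cancer cells in 1536-well plates were fixed and stained in a single step (final 0.05% Triton X-100, 1% formaldehyde, 1 ug/ml Hoechst) and their nuclei counted on 4× images. Treatment had been applied by pin tool the day after seeding as one drug alone or as a fixed anchor-drug dose with five library-drug doses (not always all listed) in √10 steps. Relative viability is the nuclei count of treated wells divided by that of vehicle wells, and values are medians of duplicate plates.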

Compound in the assay “Dabrafenib + Pemetrexed”: CC(C)(C)c1nc(-c2cccc(NS(=O)(=O)c3c(F)cccc3F)c2F)c(-c2ccnc(N)n2)s1 [Dabrafenib] + Nc1nc2[nH]cc(CCc3ccc(C(=O)N[C@@H](CCC(=O)O)C(=O)O)cc3)c2c(=O)[nH]1 [Pemetrexed] (partner 0.2 µM)
In outline: as §1

Compound in the assay “VX-702 + Trametinib”: NC(=O)c1ccc(N(C(N)=O)c2c(F)cccc2F)nc1-c1ccc(F)cc1F [VX-702] + CC(=O)Nc1cccc(-n2c(=O)n(C3CC3)c(=O)c3c(Nc4ccc(I)cc4F)n(C)c(=O)c(C)c32)c1 [Trametinib] (partner 0.02 µM)
The gist of the method:
as §1

Compound in the assay “Dabrafenib + OSI-027”: CC(C)(C)c1nc(-c2cccc(NS(=O)(=O)c3c(F)cccc3F)c2F)c(-c2ccnc(N)n2)s1 [Dabrafenib] + COc1cccc2cc(-c3nc([C@H]4CC[C@H](C(=O)O)CC4)n4ncnc(N)c34)[nH]c12 [OSI-027] (partner 0.5 µM)
In outline:
as §1

Compound in the assay “VX-702 + Palbociclib”: NC(=O)c1ccc(N(C(N)=O)c2c(F)cccc2F)nc1-c1ccc(F)cc1F [VX-702] + CC(=O)c1c(C)c2cnc(Nc3ccc(N4CCNCC4)cn3)nc2n(C2CCCC2)c1=O [Palbociclib] (partner 0.5 µM)
The gist of the method:
as §1

Compound in the assay “Dabrafenib + Palbociclib”: CC(C)(C)c1nc(-c2cccc(NS(=O)(=O)c3c(F)cccc3F)c2F)c(-c2ccnc(N)n2)s1 [Dabrafenib] + CC(=O)c1c(C)c2cnc(Nc3ccc(N4CCNCC4)cn3)nc2n(C2CCCC2)c1=O [Palbociclib] (partner 0.5 µM)
In outline: as §1

As for SW 900, the relative viability worked out at 0.93 in the assay with Dabrafenib + Olaparib (first compound 0.009487 µM); 0.775 in the assay with Dabrafenib + Olaparib (first compound 0.09487 µM); 0.984 with Dabrafenib + Olaparib (first compound 0.3 µM); 0.494 with Dabrafenib + Pemetrexed (first compound 0.009487 µM); 0.477 with Dabrafenib + Pemetrexed (first compound 0.09487 µM); 0.45 in the assay with Dabrafenib + Pemetrexed (first compound 0.3 µM). For the same cell line, the relative viability with VX-702 + Trametinib (first compound 0.02 µM) stood at 0.775; with VX-702 + Trametinib (first compound 0.2 µM), 0.871; with VX-702 + Trametinib (first compound 0.6325 µM), 0.856; with VX-702 + Trametinib (first compound 2 µM), 0.795; with Dabrafenib + OSI-027 (first compound 0.009487 µM) it was 0.619; with Dabrafenib + OSI-027 (first compound 0.03 µM), 0.466. Besides, the relative viability with Dabrafenib + OSI-027 (first compound 0.3 µM) worked out at 0.679; with VX-702 + Palbociclib (first compound 0.02 µM), 0.577; with VX-702 + Palbociclib (first compound 0.2 µM) it was 0.566; with VX-702 + Palbociclib (first compound 0.6325 µM) it was 0.575; with VX-702 + Palbociclib (first compound 2 µM) it was 0.539; in the assay with Dabrafenib + Palbociclib (first compound 0.009487 µM) it was 0.532. Also, the figures for the relative viability with Dabrafenib + Palbociclib (first compound 0.09487 µM) and with Dabrafenib + Palbociclib (first compound 0.3 µM) were 0.523 and 0.58, respectively.

For the origin of these results see the supplement of paper PMC10307832.
